Columns and labels:
[1] = molecular target: T1, mACP9 (ACP domain from MLSA2, module 9 of the mycolactone PKS) (Mycobacterium ulcerans, UniProt Q6MZA5); experiment: circular dichroism thermal denaturation; type: binding; details: absolute Tm
T1 construct: excised ACP domain, residues 2050-2140; N-terminal His6-tag cleaved by thrombin leaving GSHM; E. coli Tuner(DE3); monomer; Ppant attachment at Ser2096

[2] = molecular target: T1, mACP9 (ACP domain from MLSA2, module 9 of the mycolactone PKS); experiment: solution NMR structure; type: binding; details: covalent at Ser2096; nonpolar pocket between helix α2 and turns α2′ and α3′; phosphate buffer pH 7.5, 283 K

CC(C)(COP(=O)(O)O)[C@@H](O)C(=O)NCCC(=O)NCCS [holo, 4′-phosphopantetheine]
Tm ([1]; covalent at Ser2096 (holo form), 20 mM sodium hydrogen phosphate, 50 mM NaF, pH 7.5, apo reference in the same sentence): 59 °C

CCCCCCCC(=O)SCCNC(=O)CCNC(=O)[C@H](O)C(C)(C)COP(=O)(O)O [octanoyl, octanoyl-phosphopantetheine group]
solution NMR structure [2]: final ensemble for octanoyl-mACP9 were deposited in the Protein Data Bank under ID code 5HV8
Tm ([1]; covalent at Ser2096 (octanoyl-Ppant), buffer as above, apo and holo references in the same sentence): 57 °C

hexanoyl-mACP9 (hexanoyl-phosphopantetheine group)
Tm ([1]; covalent at Ser2096 (hexanoyl-Ppant), buffer as above, apo and holo references in the same sentence): 58 °C

— article PMC4847154, “Sticky swinging arm dynamics: studies of an acyl carrier protein domain from the mycolactone polyketide synthase” (Biochemical Journal, 2016)
